# Source: ChEMBL document CHEMBL1201862, “PubChem BioAssay data set” (2004)
#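 48-hour exposure; five concentrations; linearly interpolated endpoints. GI50 is the concentration that inhibits growth by half.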 Activity calls are given as the source filed them. Rule as the data show it: active = GI50 up to about 1.1 µM and inactive = higher.
# How the values were obtained:
# Assay in all cases: NCI-60 cell line screen, 48 h
# [1] = system: KM-20L2
# [2] = system: SR
# [3] = system: OVCAR-4
# [4] = system: UACC-257
# [5] = system: UACC-62
# [6] = system: HCC 2998
# [7] = system: A498
# [8] = system: HCT-116
# [9] = system: SK-MEL-28
# [10] = system: IGROV-1
# [11] = system: SW-620
# [12] = system: A549
# [13] = system: HT-29
# [14] = system: HOP-18
# [15] = system: HCT-15
# [16] = system: M19-MEL
# [17] = system: XF498
# [18] = system: NCI-H460
# [19] = system: MOLT-4
# [20] = system: ACHN
# [21] = system: NCI-H23
# [22] = system: LXFL 529
# [23] = system: RXF 393
# [24] = system: HL-60
# [25] = system: SNB-75
# [26] = system: HOP-62
# [27] = system: SF-295
# [28] = system: 786-0
# [29] = system: DMS-273
# [30] = system: CCRF-CEM
# [31] = system: SK-MEL-2
# [32] = system: COLO 205
# [33] = system: DMS-114
# [34] = system: UO-31
# [35] = system: SF-539
# [36] = system: SNB-78
# [37] = system: RPMI-8226
# [38] = system: KM12
# [39] = system: U-251
# [40] = system: HOP-92
# [41] = system: M14
# [42] = system: EKVX
# [43] = system: CAKI-1
# [44] = system: DLD-1
# [45] = system: K562
# [46] = system: OVCAR-8
# [47] = system: OVCAR-3
# [48] = system: SNB-19
# [49] = system: SN12C
# [50] = system: LOX IMVI
# [51] = system: SK-MEL-5
# [52] = system: NCI-H226
# [53] = system: NCI-H522
# [54] = system: RXF 631
# [55] = system: TK-10
# [56] = system: Malme-3M
# [57] = system: SF-268
# [58] = system: SK-OV-3
# [59] = system: OVCAR-5
structure (smiles),measurement,setting,value
COC1C(OC(=S)Nc2ccccc2)c2ccccc2N1C(C)=O (stereo not given),GI50,[1],57.4 µM (inactive)
same,GI50,[2],48.6 µM (inactive)
same,GI50,[3],75.9 µM (inactive)
same,GI50,[4],> 100 µM (inactive)
same,GI50,[5],31.4 µM (inactive)
same,GI50,[6],> 100 µM (inactive)
same,GI50,[7],> 100 µM (inactive)
same,GI50,[8],> 100 µM (inactive)
same,GI50,[9],> 100 µM (inactive)
same,GI50,[10],80.4 µM (inactive)
same,GI50,[11],34 µM (inactive)
same,GI50,[12],87.7 µM (inactive)
same,GI50,[13],99.1 µM (inactive)
same,GI50,[14],> 100 µM (inactive)
same,GI50,[15],52.1 µM
same,GI50,[16],> 100 µM (inactive)
same,GI50,[17],> 100 µM (inactive)
same,GI50,[18],> 100 µM (inactive)
same,GI50,[19],44 µM (inactive)
same,GI50,[20],29 µM (inactive)
same,GI50,[21],> 100 µM (inactive)
same,GI50,[22],44.4 µM (inactive)
same,GI50,[23],26.5 µM (inactive)
same,GI50,[24],72.8 µM (inactive)
same,GI50,[25],> 100 µM (inactive)
same,GI50,[26],> 100 µM (inactive)
same,GI50,[27],28.4 µM (inactive)
same,GI50,[28],> 100 µM (inactive)
same,GI50,[29],85.3 µM (inactive)
same,GI50,[30],64.4 µM (inactive)
same,GI50,[31],68.9 µM (inactive)
same,GI50,[32],> 100 µM (inactive)
same,GI50,[33],60.7 µM (inactive)
same,GI50,[34],98.4 µM (inactive)
same,GI50,[35],> 100 µM (inactive)
same,GI50,[36],> 100 µM (inactive)
same,GI50,[37],50.4 µM (inactive)
same,GI50,[38],29.9 µM (inactive)
same,GI50,[39],> 100 µM (inactive)
same,GI50,[40],13.7 µM (inactive)
same,GI50,[41],89.3 µM (inactive)
same,GI50,[42],> 100 µM (inactive)
same,GI50,[43],85.1 µM (inactive)
same,GI50,[44],90.2 µM (inactive)
same,GI50,[45],> 100 µM (inactive)
same,GI50,[46],> 100 µM (inactive)
same,GI50,[47],> 100 µM (inactive)
same,GI50,[48],> 100 µM (inactive)
same,GI50,[49],> 100 µM (inactive)
CC(=O)NC1C(OCc2ccccc2)OC(COC(=O)CCCCCNc2ccc([N+](=O)[O-])c3[nH]c4ccc(O)cc4c(=O)c23)C(O)C1OC(C)C(=O)N[C@@H](C)C(=O)N[C@H](CCC(=O)OCc1ccccc1)C(N)=O (stereo not given in full),GI50,[1],0.234 µM (active)
same,GI50,[2],0.522 µM (active)
same,GI50,[3],3.34 µM (inactive)
same,GI50,[4],2.45 µM (inactive)
same,GI50,[5],1.77 µM (inactive)
same,GI50,[6],3.25 µM (inactive)
same,GI50,[7],2.1 µM (inactive)
same,GI50,[8],0.321 µM (active)
same,GI50,[9],2.69 µM (inactive)
same,GI50,[10],7.24 µM (inactive)
same,GI50,[50],2.39 µM (inactive)
same,GI50,[11],0.465 µM (active)
same,GI50,[12],1.26 µM (inactive)
same,GI50,[51],8.53 µM (inactive)
same,GI50,[13],0.401 µM (active)
same,GI50,[14],1.71 µM (inactive)
same,GI50,[15],0.745 µM
same,GI50,[16],5.68 µM (inactive)
same,GI50,[52],4.9 µM (inactive)
same,GI50,[18],0.261 µM (active)
same,GI50,[19],1.87 µM (inactive)
same,GI50,[53],1.6 µM (inactive)
same,GI50,[54],0.759 µM (active)
same,GI50,[20],17.3 µM (inactive)
same,GI50,[21],1.35 µM (inactive)
same,GI50,[22],1.5 µM (inactive)
same,GI50,[55],3.06 µM (inactive)
same,GI50,[56],1.32 µM (inactive)
same,GI50,[23],1.6 µM (inactive)
same,GI50,[57],2.31 µM (inactive)
same,GI50,[24],2.77 µM (inactive)
same,GI50,[25],4.13 µM (inactive)
same,GI50,[26],5.9 µM (inactive)
same,GI50,[27],3.08 µM (inactive)
same,GI50,[28],1.86 µM (inactive)
same,GI50,[29],1.49 µM (inactive)
same,GI50,[30],3.06 µM (inactive)
same,GI50,[58],2.99 µM (inactive)
same,GI50,[31],1.95 µM (inactive)
same,GI50,[32],1.55 µM (inactive)
same,GI50,[59],1.06 µM (active)
same,GI50,[35],3.4 µM (inactive)
same,GI50,[36],3.16 µM (inactive)
same,GI50,[37],0.506 µM (active)
same,GI50,[38],1.39 µM (inactive)
same,GI50,[39],2.45 µM (inactive)
same,GI50,[40],0.879 µM (active)
same,GI50,[41],1.49 µM (inactive)
same,GI50,[42],3.94 µM (inactive)
same,GI50,[43],1.56 µM (inactive)
same,GI50,[44],1.8 µM (inactive)
same,GI50,[45],1.49 µM (inactive)
same,GI50,[46],1.64 µM (inactive)
same,GI50,[47],2.15 µM (inactive)
same,GI50,[48],3 µM (inactive)
same,GI50,[49],6.59 µM (inactive)
